Assay: Human HepG2 cell viability assay in 384 well format
Format: toxicity, cell-based
Parameters: dose 125 nL, time 70.5 hour; cytotoxicity at 70.5 h: concentration not given beside the values
Settings: HepG2 cells, read-out: Inhibition

| SMILES | cytotoxicity at 70.5 h |
| --- | --- |
| CCS(=O)(=O)N1CCN(CC2CC2)c2ncccc2C1 | -2.09% |
| Cc1cc(C(=O)NC2CCc3c(ccc(=O)n3CCN(C)C)C2)no1 (centres undefined) | -3.71% |
| CCN1Cc2ccccc2CC2(CCN(C)CC2)C1=O | -7.96% |
| CCN1Cc2ccccc2CC2(CCN(C(=O)N(C)C)CC2)C1=O | -5.37% |
| CC(=O)N1CCO[C@@H]2CN(S(=O)(=O)c3cccs3)CC[C@@H]2C1 | -9.77% |
| COCC1COCCC12CCN(S(=O)(=O)c1ccccc1C)CC2 (centres undefined) | 7.67% |
| C[C@H]1CCCCN1CCCNc1nccc(-c2c[nH][nH]c2=O)n1 | 4.41% |
| CN1CCN(CC2CC2)C(=O)c2cnc(N3CCOCC3)nc21 | -3.35% |
| Cc1[nH]c2ccccc2c1-c1ccnc(N[C@H](CO)CC(C)C)n1 | -2.73% |
| COC(=O)c1ccc2c(-c3ccnc(N[C@@H](C)CO)n3)c[nH]c2c1 | -2.09% |
| CC[C@@H](C)[C@@H](N)C(=O)Nc1cccc(-c2cnc(N(C)C)nc2)c1 | -4.42% |
| O=C1CN(CC2CC2)Cc2nc(NCCc3ccccn3)sc21 | 26.4% |
| CC(C)NC(=O)NCc1cc(-c2ccco2)n(CC(F)(F)F)n1 | -5.8% |
| CN1CCCN(c2nccc(-c3c[nH]nc3-c3ccncc3)n2)CC1 | -3.42% |
| O=C(Nc1ccc(-c2cnc(NCCO)nc2)cc1)[C@@H]1CCCCN1 | -3.46% |
| CN(c1nccc(-c2cnc3sccn3c2=O)n1)C1CCCCC1 | -3.44% |
| O=c1c(-c2ccnc(N3CCCC[C@@H]3CO)n2)cnc2sccn12 | -4.35% |
| CN1CCN(CC2CC2)C(=O)c2cnc(N3CCC(CO)CC3)nc21 | -4.14% |
| O=c1[nH]c(-c2ccncc2)ncc1-c1ccnc(NC2CCCCC2)n1 | 18.2% |
| CC(C)[C@H](NS(C)(=O)=O)C(=O)NCc1cc(-c2ccccc2)n[nH]1 | -10.8% |
| COc1cccc(OC)c1-c1ccnc2cc(CC(=O)NC3CC3)nn12 | -11% |
| CCc1ccc(-c2ncc3c(n2)N(C)CCN(CCN(C)C)C3=O)cc1 | -5.02% |

| SMILES | cytotoxicity at 70.5 h |
| --- | --- |
| CC(C)NC(=O)N1CC(=O)c2sc(Nc3ccc(C#N)cc3)nc2C1 | -7.13% |
| COc1cccc(-c2ncc3c(n2)N(C)CCN(CCN(C)C)C3=O)c1 | -6.84% |
| Cc1cn2c(=O)c(-c3ccnc(N(C)C4CCCCC4)n3)cnc2s1 | -3.7% |
| Cc1csc2ncc(-c3ccnc(N4CCCN(C)CC4)n3)c(=O)n12 | -0.0913% |
| CC(C)Nc1nc2c(s1)C(=O)CN(C(=O)NCCc1ccccc1)C2 | -4.98% |
| COc1ccccc1Nc1nc2c(s1)C(=O)CN(C(=O)CC(C)C)C2 | 2.87% |
| O=c1c(-c2ccnc(NC3CCCCC3)n2)cnc2sc(Cl)cn12 | -5.61% |
| CC(C)Nc1ncc(-c2csc(NC(=O)C[C@H]3COCCN3)n2)cn1 | -10.2% |
| CNCC(=O)Nc1cccc(-c2cnc(NCCS(C)(=O)=O)nc2)c1 | 0.0271% |
| CC(C)[C@H](NS(C)(=O)=O)C(=O)NCc1cc(-c2ccccc2)nn1C | 7.09% |
| CCNc1nc(-c2cccnc2)c(-c2ccnc(N3CCOCC3)n2)s1 | -10.7% |
| CC[C@H](C)[C@H](N)C(=O)N1CC(=O)c2sc(Nc3ccc(F)cc3)nc2C1 | 7.24% |
| CS(=O)(=O)NCc1cc(-c2cc(F)cc(F)c2)nc(N2CC[C@H](O)C2)n1 | -10.5% |
| O=c1[nH][nH]cc1-c1ccnc(NCCN2CCCC2)n1 | 50.4% |
| CN1CCN(CC2CC2)C(=O)c2cnc(N3CC[C@@H](O)C3)nc21 | 27.1% |
| Nc1nccc(-c2c[nH]nc2C2CCCCC2)n1 | 47.1% |
| Cc1c(C(C)NC2CCOCC2)cnn1-c1ccc(F)cc1F (centres undefined) | 9.85% |
| CCn1c(CC2CCN(C(=O)C3CC(C(C)C)=NO3)CC2)nn(C)c1=O (centres undefined) | -6.72% |
| CCNc1ncc(C(=O)NCc2ccc3nsnc3c2)cn1 | 0.938% |
| CN(Cc1nc(-c2ccccc2)no1)Cc1cnc(N2CCOCC2)s1 | 1.48% |
| CCC(O)CNC(=O)c1cc(COc2ccc(OC)cc2Cl)[nH]n1 (centres undefined) | -1.08% |
| CSc1ncccc1C(=O)N1CCCC1c1ccc(C(=O)N(C)C)s1 (centres undefined) | -15.4% |

| SMILES | cytotoxicity at 70.5 h |
| --- | --- |
| O=C(Cc1ccc(-c2ccccc2)cc1)N1CCOCC(O)C1 (centres undefined) | -9.74% |
| COc1cc(C(=O)NCc2cc(N3CCOCC3)ncn2)ccn1 | 20.4% |
| COCCC1(CO)CCCN(C(=O)c2ccc(C(C)C)[nH]c2=O)C1 (centres undefined) | 11.1% |
| COc1ccc(-c2cn[nH]c2)cc1CNC1CCCC1 | -19.5% |
| Cn1ncc(N2CCC(CNC3CC(c4ccccc4)C3)CC2)cc1=O (centres undefined) | -5.35% |
| Cc1ccccc1N1CCN(C(=O)c2cnc(N(C)C)nc2C)C(C)C1 (centres undefined) | -7.48% |
| Nc1ncccc1CN1CCCn2nc(CCC(=O)NC3CC3)cc2C1 | -2.41% |
| CN(CCc1cn[nH]c1)C(=O)C1CC(=O)N(Cc2ccccn2)C1 (centres undefined) | 6.7% |
| CCc1cn[nH]c1C1CCN(C(=O)c2cc(C(C)=O)c(C)[nH]c2=O)CC1 | -9.17% |
| Cc1ccc(=O)n(CC(=O)N(C)Cc2csc(-c3cccs3)n2)n1 | -7.16% |
| Cc1ccc2nc(C)c(C)c(C(=O)N3CCS(=O)(=O)CC3)c2c1 | -12.9% |
| CC(C)n1cnnc1CN(C)Cc1ccc(CO)o1 | -22.8% |
| NC(=O)c1ccc(-n2ccnc2-c2cccc(O)c2)cc1N1CCCC1 | -6.04% |
| N[C@H]1CN(C(=O)c2ccc(Cl)cc2F)C[C@@H]1C1CC1 | -4.7% |
| CCc1nc(C)c(C(=O)N2C[C@@H](C(=O)O)[C@H](C3CC3)C2)s1 | -4.51% |
| CCOC(=O)c1n[nH]cc1CN1CCCC(N(C)Cc2ccccc2)C1 (centres undefined) | 2.53% |
| CCN(Cc1ccncc1)C1CCCN(Cc2ccc(F)cc2Cl)C1 (centres undefined) | 1.69% |
| c1c[nH]c(-c2cn(CCSc3cnn[nH]3)nn2)n1 | -11.9% |
| CCc1nc(N2CCCC(CCOC)(C(=O)O)C2)ncc1C (centres undefined) | -4.01% |
| Cc1cc(C)n(C2CCN(C(=O)c3cn4ccsc4n3)C2)n1 (centres undefined) | -7.56% |
| Cc1cc(C2CCC2)nc(NCCC23CCCN2CCC3)n1 | -8.73% |
| O=C1CCC2(CCCN(C(=O)c3ccoc3)C2)CN1Cc1ccncc1 (centres undefined) | -16.8% |

| SMILES | cytotoxicity at 70.5 h |
| --- | --- |
| O=C(c1ccnc(N2CCOC(C(F)(F)F)C2)c1)N1CCOCC1 (centres undefined) | -19.7% |
| CC(C)c1nnc2sc(CC3CN(Cc4ccccc4)CCO3)nn12 (centres undefined) | 6.69% |
| CC(C)[C@H]1COC(=O)N1CC(=O)N(C)CCCn1cccn1 | -4.67% |
| Cc1cc(-c2nn(C)c(Cl)c2CN2CCCCC(N)C2)no1 (centres undefined) | -1.48% |
| CN1CCN(C(=O)NCCc2ccc(F)cc2)[C@H]2CS(=O)(=O)C[C@H]21 | -2.69% |
| CN(Cc1csc(-c2ccccc2)n1)C(=O)CCn1ccccc1=O | -0.921% |
| CSCc1noc(CN2CC3(CCCC3)CC2=O)n1 | -7.21% |
| CCc1nc(N2CCCC(O)(CO)CC2)ncc1C (centres undefined) | -0.208% |
| CN1CCCN(C(=O)c2cnc(Cc3c(Cl)cccc3Cl)nc2O)CC1 | -3.04% |
| CC1(C)CCN(Cc2ccccc2-c2nc(C(C)(C)C)cc(=O)[nH]2)C1 | -4.72% |
| Cc1ccc(C(=O)N2CCC(=O)N(CC3CC3)C(C(C)C)C2)c(=O)[nH]1 (centres undefined) | 4.74% |
| CCN1CC2(CCN(C(=O)C(C)Oc3ccc(F)cc3F)CC2)OC1=O (centres undefined) | -1.13% |
| Cc1cnc(NC(=O)c2cccc(CN(C)Cc3snnc3C)c2)s1 | -4.01% |
| CC(c1ccon1)N(C)C(=O)C1CCN(C2CCCCC2)CC1 (centres undefined) | -1.12% |
| Cc1ccccc1-n1cc(CN(C)C(=O)CC2C(=O)NCCN2C)cn1 (centres undefined) | -2.44% |
| CN(CCCN1CCCCCC1)C(=O)c1ccccc1NCC(=O)O | -12.7% |
| O=C(CN1CCOC1=O)N1CC[C@@H](c2ccc3ccccc3c2)[C@H](O)C1 | -9.33% |
| Cc1ccc(CN(Cc2ccccn2)C(=O)CCC2CCCN(C)C2)s1 (centres undefined) | 32.1% |
| CC(C)(C)c1cc(CN2CCOCC(O)C2)n[nH]1 (centres undefined) | 2.49% |
| c1cc(CN2CCC(c3nnc4n3CCCCC4)CC2)c2c(c1)OCO2 | -5.9% |
| c1cncc(CN2CCCC(Nc3ncnc4c3CCNCC4)C2)c1 (centres undefined) | -11.7% |
| Cc1cc(N2C[C@H](C3CC3)[C@@H](N)C2)nc(N2CCCCC2)n1 | 3.53% |

| SMILES | cytotoxicity at 70.5 h |
| --- | --- |
| COc1ccc(CN2CCC3(CC2)C(C(=O)O)CC(=O)N3C)cc1Cl (centres undefined) | -3.23% |
| C[C@@H]1CN(C(=O)Cn2ccc3ncccc3c2=O)C[C@H](C)O1 | -5.8% |
| CCC[C@H]1CN(S(=O)(=O)c2cc(C)ccc2F)C[C@@H]1N | -0.888% |
| Cc1nccc(N[C@H]2CN(CCS(C)(=O)=O)C[C@@H]2C2CC2)n1 | 18.1% |
| CN1CC(C(=O)N2CCN(c3cccc(Cl)c3)C(=O)C2)NC1=O (centres undefined) | -7.63% |
| COCCn1cnnc1Cn1ccnc1-c1ccsc1 | 1.35% |
| COc1ccccc1-n1nc(C(C)C)nc1Cc1nnc(N)s1 | -12.4% |
| COc1cc(-c2cccc3c2OC(CN)C3)ccc1O (centres undefined) | 14.1% |
| CSCCCNc1nccc(-c2cc(C(=O)O)ccn2)n1 | -7.43% |
| COC(=O)N1C[C@H]2CC[C@@H]1CN(Cc1ccncc1)C2 | -14.2% |
| O=C(O)C1(Oc2cccc(F)c2)CCN(C2CCOCC2)CC1 | -6.65% |
| COc1cc(CN2CC(=O)N(c3ccc(C)cc3)CC2C)cc(OC)c1 (centres undefined) | -12% |
| O=C(CCc1ccccc1)C1CCCN(Cc2cncn2C2CC2)C1 (centres undefined) | 2.12% |
| CCCOCCN1CCc2[nH]c(-c3ccccc3)nc2C1 | 11.7% |
| CN(C)Cc1cncc2c1CCN(C1CCOCC1)C2 | -8.32% |
| Cc1nc(COCC2CN(C(=O)N(C)C)Cc3nccn3C2)cs1 (centres undefined) | -5.94% |
| CC(C)N1CCO[C@@H]2CN(S(=O)(=O)c3cccs3)CC[C@@H]2C1 | -7.93% |
| CCN1CCO[C@@H]2CN(S(=O)(=O)c3cccs3)CC[C@@H]2C1 | -6.19% |
| Cn1cc(CN2CCc3onc(C(=O)N4CCCC4)c3C2)cn1 | 5.88% |
| CCN1Cc2nccn2CC(COCc2csc(C)n2)C1 (centres undefined) | -3.32% |
| Cc1noc(C)c1CN1C[C@H](OCC2CCN(C)CC2)[C@H]2COC[C@H]21 | 30.4% |

Source: ChEMBL document CHEMBL3507680, “University of Dundee, Gates Library screen for HepG2 cell viability”
